Tested on: hormone-insensitive PC3 cells
Assay: Growth inhibition in prostate carcinoma cells
Assay type: cell-based
Method: In these studies, cells were seeded at 5,000 cells per untreated well.

Q: With “GTCCCGACATGTCAGACAGG (antisense GTCCCGACATGTCAGACAGG; chemistry not given here) [SEQ ID NO 1, antisense 20 mer spanning the translation start site of CK2α]” as the sequence, how does the “IC50 as % of cisplatin's IC50” value read?
A: 65%
